# Measured values as given in US20260124214A1, “HETEROCYCLIC COMPOUNDS FOR USE IN THE TREATMENT OF CANCER” (ARTIOS PHARMA LIMITED, priority 2021, published 2026).
# Counter-ions that a name gives are not always drawn.
# Target: T1, Human Polθ polymerase domain (aa1820-2590) (Homo sapiens, UniProt O75417)
# T1 construct: Human Polθ polymerase domain (aa1820-2590) was expressed in E. Coli; made in house; host or cells: E. coli
# T1 sequence (O75417 1820-2590): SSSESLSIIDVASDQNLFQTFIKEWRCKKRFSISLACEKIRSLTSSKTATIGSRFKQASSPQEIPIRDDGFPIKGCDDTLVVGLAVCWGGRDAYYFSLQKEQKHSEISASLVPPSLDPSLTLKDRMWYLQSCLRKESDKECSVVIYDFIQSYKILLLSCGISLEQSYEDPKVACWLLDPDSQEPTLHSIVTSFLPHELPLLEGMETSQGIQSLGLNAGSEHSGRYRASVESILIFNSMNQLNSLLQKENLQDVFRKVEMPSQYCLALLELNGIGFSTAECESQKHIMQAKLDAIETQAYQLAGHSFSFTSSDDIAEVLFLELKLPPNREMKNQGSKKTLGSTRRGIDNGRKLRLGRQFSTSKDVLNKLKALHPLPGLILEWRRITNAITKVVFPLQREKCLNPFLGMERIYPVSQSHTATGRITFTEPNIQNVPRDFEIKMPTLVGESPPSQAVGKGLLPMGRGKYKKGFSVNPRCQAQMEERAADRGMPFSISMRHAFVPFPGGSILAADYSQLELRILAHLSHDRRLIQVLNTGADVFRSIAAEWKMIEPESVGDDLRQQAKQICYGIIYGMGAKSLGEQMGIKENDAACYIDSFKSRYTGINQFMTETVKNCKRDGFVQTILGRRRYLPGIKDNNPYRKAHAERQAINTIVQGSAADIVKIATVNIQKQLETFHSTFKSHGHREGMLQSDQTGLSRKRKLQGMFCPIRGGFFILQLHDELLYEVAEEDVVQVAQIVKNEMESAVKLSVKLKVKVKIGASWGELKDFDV
# Assay: Polθ Polymerase Domain WT KI Assay (PicoGreen)
# Assay type: biochemical
# Settings: 100 nM DNA substrate, 0.156 nM Polθ, initial rates vs inhibitor concentration
# Outline: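 E. coli-expressed human Polθ polymerase domain (aa1820-2590) on annealed DNA II Short/Long primer-template (1.2:1), in 25 mM Tris pH 7.5, NaCl, 5% glycerol, 0.01% Triton X-100, 0.1 mg/ml BSA, 1 mM DTT, 1% DMSO. EDTA-quenched timepoints to 180 min, PicoGreen fluorescence. Initial rates vs inhibitor concentration fitted four-parameter for KI.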
row,Ki [nM],Compound
1,4.26,"Cc1cc(C(F)(F)F)cc(N2C(=O)C[C@@H]3CN(Cc4cccc(C5CN(C)C5)c4)c4c(F)cccc4N(C)C(=O)[C@H]32)n1 [Example 124, (3aR,11aS)-6-Fluoro-10-methyl-1-(6-methyl-4-(trifluoromethyl)pyridin-2-yl)-5-(3-(1-methylazetidin-3-yl)benzyl)-1,3a,4,5,10,11a-hexahydro-2H-benzo[b]pyrrolo[2,3-f][1,4]diazocine-2,11(3H)-dione]"
2,1.97,"Cc1cc(C(F)(F)F)cc(N2C(=O)C[C@@H]3CN(CCN4CCN(C5COC5)CC4)c4c(Cl)cccc4N(C)C(=O)[C@H]32)n1 [Example 28, (3aR,11aS)-6-Chloro-10-methyl-1-(6-methyl-4-(trifluoromethyl)pyridin-2-yl)-5-(2-(4-(oxetan-3-yl)piperazin-1-yl)ethyl)-1,3a,4,5,10,11a-hexahydro-2H-benzo[b]pyrrolo[2,3-f][1,4]diazocine-2,11(3H)-dione]"

# Second part, the compound before the results:
row,Compound,Ki [nM]
1,"Cc1cc(C(F)(F)F)cc(N2C(=O)C[C@@H]3CN(Cc4cn5c(n4)[C@H](C)N(C)CC5)c4c(C)cccc4N(C)C(=O)[C@H]32)n1 (racemic) [Example 116b, (3aR,11aS)-5-(((S/R)-7,8-Dimethyl-5,6,7,8-tetrahydroimidazo[1,2-a]pyrazin-2-yl)methyl)-6,10-dimethyl-1-(6-methyl-4-(trifluoromethyl)pyridin-2-yl)-1,3a,4,5,10,11a-hexahydro-2H-benzo[b]pyrrolo[2,3-f][1,4]diazocine-2,11(3H)-dione]",0.421
2,"Cc1cc(C(F)(F)F)cc(N2C(=O)C[C@@H]3CN(CCN4CCOCC4)c4c(C)cccc4N(C)C(=O)[C@H]32)n1 [Example 44, (3aR,11aS)-6,10-Dimethyl-1-(6-methyl-4-(trifluoromethyl)pyridin-2-yl)-5-(2-morpholinoethyl)-1,3a,4,5,10,11a-hexahydro-2H-benzo[b]pyrrolo[2,3-f][1,4]diazocine-2,11(3H)-dione]",0.349
3,"Cc1cc(C(F)(F)F)cc(N2C(=O)C[C@@H]3CN(CCN4CCNCC4)c4c(C)cccc4NC(=O)[C@H]32)n1 [Example 148, (3aR,11aS)-6-Methyl-1-(6-methyl-4-(trifluoromethyl)pyridin-2-yl)-5-(2-(piperazin-1-yl)ethyl)-1,3a,4,5,10,11a-hexahydro-2H-benzo[b]pyrrolo[2,3-f][1,4]diazocine-2,11(3H)-dione]",3.04
4,"Cc1cc(C(F)(F)F)cc(N2C(=O)C[C@@H]3CN(CCN4C[C@H]5C[C@@H]4CN5C)c4c(C)cccc4N(C)C(=O)[C@H]32)n1 [Example 61, (3aR,11aS)-6,10-Dimethyl-5-(2-((1R,4R)-5-methyl-2,5-diazabicyclo[2.2.1]heptan-2-yl)ethyl)-1-(6-methyl-4-(trifluoromethyl)pyridin-2-yl)-1,3a,4,5,10,11a-hexahydro-2H-benzo[b]pyrrolo[2,3-f][1,4]diazocine-2,11(3H)-dione dihydrochloride]",0.759
